Measurements as given in patent US7314937B2, “Non-imidazole aryl alkylamines compounds as histamine H3 receptor antagonists, preparation and therapeutic uses” (Eli Lilly and Company, priority 2002, dated 2008).
Where two headings read alike, the source gives them in different places.

Legend:
[1] = target: T1, H3R membranes (H3R8-expressing HEK293 cell line) (Homo sapiens, UniProt Q9Y5N1); assay: [35S]GTPγS binding assay (antagonist inhibition of agonist-stimulated binding); format: biochemical; details: inhibition of [35S]GTPγS binding to H3R membranes in presence of agonist R(-) alpha methylhistamine
T1 construct: expressed in transfected cells; membranes
Description: Membranes isolated as described in Example 3 were used in a [^35S]GTPχS functional assay. Binding of [^35S]GTPχS to membranes indicates agonist activity. Compounds of the invention of Formula I were tested for their ability to inhibit binding in the presence of agonists. Alternately, the same transfected cell lines were used for a cAMP assay wherein H3R agonists inhibited forskolin-activated synthesis of cAMP. Compounds of Formula I were tested for their ability to permit forskolin-stimulated cAMP synthesis in the presence of agonist.
cDNA for the human histamine 3 receptor was cloned and expressed as described in Example 1, above. Transfected cells were selected using G418 (500 μ/ml), grown, and tested for histamine binding by the SPA described above. For total binding, cells were assayed in a SPA reaction described above containing 50 mM Tris-HCL (assay buffer), pH 7.6, 1 mg wheat germ agglutinin SPA beads (Amersham Pharmacia Biotech, #RPNQ0001), and 1 nM (^3H)-n-alpha-methylhistamine (NEN, NET1027) (total volume per well=200 μl). Thioperimide was added to determine non-specific binding. […]
Antagonist activity of selected compounds was tested for inhibition of [^35S] […] Plates were counted in Wallac Trilux 1450 Microbeta scintillation counter for 1 minute. […]

[2] = target: T2, human histamine 3 receptor (H3R) (Homo sapiens, UniProt Q9Y5N1); assay: Competitive inhibition SPA radioligand binding assay, H3R
T2 construct: expressed in transfected cells; membranes
Description: The inventive compounds can readily be evaluated by using a competitive inhibition Scintillation Proximity Assay (SPA) based on a H3R binding assay using [3H] a methylhistamine as ligand. Stable cell lines, including but not limited to HEK can be transfected with cDNA coding for H3R to prepare membranes used for the binding assay. The technique is illustrated below (Example 3) for the histamine receptor subtypes.
C. Preparation of H3R Membranes
cDNA for the human histamine 3 receptor was cloned and expressed as described in Example 1, above. Transfected cells were selected using G418 ([…]), grown, and tested for histamine binding by the SPA described above. For total binding, cells were assayed in a SPA reaction described above containing 50 mM Tris-HCL (assay buffer), pH 7.6, 1 mg wheat germ agglutinin SPA beads (Amersham Pharmacia Biotech, #RPNQ0001), and 1 nM (^3H)-n-alpha-methylhistamine (NEN, NET1027) (total volume per well=200 μl). Thioperimide was added to determine non-specific binding. Several clones were selected as positive for binding, and a single clone (H3R8) was used to prepare membranes for binding studies described above. Five micrograms of protein was used per well in the SPA receptor-binding assay.
To investigate the selectivity of the antagonists for the histamine receptors, a competitive binding assay described above was performed. […]

[3] = target: T3, human GPRv53 receptor (H4R) (Homo sapiens, UniProt Q9H3N8); assay: Competitive binding assay, GPRv53 (H4R), [3H]histamine; details: for inhibition of binding to H4R compared to H3R: in words; for Ki: selectivity study Table 2
T3 construct: expressed in transfected cells; host or cells: HEK293 GPRv53 50 cells; homogenised whole-cell lysates
Description: D. Preparation of GPRv53 Membranes
cDNA for the human GPRv53 receptor was cloned and expressed as described in Example 1, above. Transfected cells were selected, tested for histamine binding, and selected. HEK293 GPRv53 50 cells were grown to confluency in DMEM/F12 (Gibco) supplemented with 5% FBS and 500 ug/ml G418 and washed with Delbecco's PBS (Gibco) and harvested by scraping. Whole cells were homogenized with a Polytron tissuemizer in binding buffer, 50 mM Tris pH 7.5. Cell lysates, 50 ug, were incubated in 96 well dishes with 3 nM (3H) Histamine and compounds in binding buffer for 2 hours at room temperature. Lysates were filtered through glass fiber filters (Perkin Elmer) with a Tomtec cell harverster. Filters were counted with melt-on scintillator sheets (Perkin Elmer) in a Wallac Trilux 1450 Microbeta Scintillation counter for 5 minutes.
(§1) To investigate the selectivity of the antagonists for the histamine receptors, a competitive binding assay described above was performed. […] Until the present invention, most known H3R antagonists also bound H4R.

[4] = target: T4, human histamine 1 receptor (H1R) (Homo sapiens, UniProt P35367); assay: Competitive SPA binding assay, H1R, 3H-pyrilamine; details: selectivity study Table 2
T4 construct: expressed in transfected cells; membranes
Description: A. Preparation H1R Membranes
cDNA for the human histamine 1 receptor (H1R) was cloned into a mammalian expression vector containing the CMV promoter (pcDNA3.1 (+), Invitogen) and transfected into HEK293 cells using the FuGENE Tranfection Reagent (Roche Diagnostics Corporation). Transfected cells were selected using G418 (500 μ/ml). Colonies that survived selection were grown and tested for histamine binding to cells grown in 96-well dishes using a scintillation proximity assay (SPA) based radioligand binding assay. Briefly, cells, representing individual selected clones, were grown as confluent monolayers in 96-well dishes (Costar Clear Bottom Plates, #3632) by seeding wells with 25,000 cells and growing for 48 hours (37° C., 5% CO2). Growth media was removed and wells were rinsed two times with PBS (minus Ca^2+ or Mg^2+). For total binding, cells were assayed in a SPA reaction containing 50 mM Tris-HCL (assay buffer), pH 7.6, 1 mg wheat germ agglutinin SPA beads (Amersham Pharmacia Biotech, #RPNQ0001), and 0.8 nM ^3H-pyrilamine (Net-594, NEN) (total volume per well=200 μl). Astemizole (10 μM, Sigma #A6424) was added to appropriate wells to determine non-specific binding. Plates were covered with FasCal and incubated at room temperature for 120 minutes. […] Plates were counted in a Wallac Trilux 1450 Microbeta scintillation counter. […]

[5] = target: T5, human histamine 2 receptor (Homo sapiens, UniProt P25021); assay: Competitive SPA binding assay, H2R, 3H-tiotidine; details: selectivity study Table 2, read-out: Ki (nM) H2
T5 construct: expressed in transfected cells; membranes
Description: B. Preparation H2R Membranes
cDNA for the human histamine 2 receptor was cloned, expressed and transfected into HEK 293 cells as described above. Histamine binding to cells was assayed by SPA described above. For total binding, cells were assayed in a SPA reaction containing 50 mM Tris-HCl (assay buffer), pH 7.6, 1 mg wheat germ agglutinin SPA beads (Amersham Pharmacia Biotech, #RPNQ0001), and 6.2 nM ^3H-tiotidine (Net-688, NEN) (total volume per well=200 μl). Cimetidine (10 μM, Sigma #C4522) was added to appropriate wells to determine non-specific binding.
Several clones were selected as positive for binding, and a single clone (H2R10) was used to prepare membranes for binding studies. Five micrograms of protein was used per well in the SPA receptor-binding assay.
as §1

[6] = Rat pharmacokinetics, iv and po, LC/MS/MS; format: in vivo, Male Sprague Dawley Rats; details: 10 mg/kg po; for oral bioavailability (AUC 0-24 hr; po/iv ratio): 3 mg/kg iv; for half-life: male, Sprague Dawley, read-out: oral half-life (±SEM) (converted)
Description: Non-imidazole containing histamine H3 receptor antagonists disclosed in the literature generally have very poor pharmacokinetic properties (see J. Apelt, et al, J. Med. Chem. 2002,45,1128-1141). […] Male Sprague Dawley Rats (n=3 per dose arm) were separately dosed with 3 mg/kg iv or 10 mg/kg po of compound examples 131 and 271 (vehicle: 5% ethanol/water or water respectively; dose volume: 1 mL/kg iv, 10 mL/kg po). Approximately 0.5 mL of blood was collected in heparin collection tubes at multiple time points over an 8 or 24-hour period for examples 131 and 271 respectively, and the samples were analyzed using LC/MS/MS.

T3 sequence (Q9H3N8 whole entry): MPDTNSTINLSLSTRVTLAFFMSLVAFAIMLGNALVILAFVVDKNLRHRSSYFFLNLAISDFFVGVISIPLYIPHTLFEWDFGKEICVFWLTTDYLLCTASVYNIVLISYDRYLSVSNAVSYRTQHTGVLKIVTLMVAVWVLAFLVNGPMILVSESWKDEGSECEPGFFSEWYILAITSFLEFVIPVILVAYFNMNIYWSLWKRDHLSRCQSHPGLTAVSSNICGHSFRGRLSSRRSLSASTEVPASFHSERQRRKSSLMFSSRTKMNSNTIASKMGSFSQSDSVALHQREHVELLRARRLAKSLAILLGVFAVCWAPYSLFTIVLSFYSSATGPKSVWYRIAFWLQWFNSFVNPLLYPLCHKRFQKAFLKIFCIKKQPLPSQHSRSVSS
T4 sequence (P35367 whole entry): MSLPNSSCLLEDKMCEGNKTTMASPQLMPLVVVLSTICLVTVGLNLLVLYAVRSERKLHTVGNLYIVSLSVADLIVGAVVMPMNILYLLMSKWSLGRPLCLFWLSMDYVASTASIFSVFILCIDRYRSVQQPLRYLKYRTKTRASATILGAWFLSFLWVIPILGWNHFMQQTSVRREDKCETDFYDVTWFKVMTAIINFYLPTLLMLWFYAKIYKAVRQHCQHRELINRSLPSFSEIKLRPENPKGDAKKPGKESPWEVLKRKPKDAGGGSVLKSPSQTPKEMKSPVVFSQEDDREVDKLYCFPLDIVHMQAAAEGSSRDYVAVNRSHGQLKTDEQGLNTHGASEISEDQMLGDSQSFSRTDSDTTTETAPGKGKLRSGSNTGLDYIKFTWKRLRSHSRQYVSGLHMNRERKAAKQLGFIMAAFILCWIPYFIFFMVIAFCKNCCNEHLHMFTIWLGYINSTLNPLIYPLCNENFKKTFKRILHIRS
T5 sequence (P25021 whole entry): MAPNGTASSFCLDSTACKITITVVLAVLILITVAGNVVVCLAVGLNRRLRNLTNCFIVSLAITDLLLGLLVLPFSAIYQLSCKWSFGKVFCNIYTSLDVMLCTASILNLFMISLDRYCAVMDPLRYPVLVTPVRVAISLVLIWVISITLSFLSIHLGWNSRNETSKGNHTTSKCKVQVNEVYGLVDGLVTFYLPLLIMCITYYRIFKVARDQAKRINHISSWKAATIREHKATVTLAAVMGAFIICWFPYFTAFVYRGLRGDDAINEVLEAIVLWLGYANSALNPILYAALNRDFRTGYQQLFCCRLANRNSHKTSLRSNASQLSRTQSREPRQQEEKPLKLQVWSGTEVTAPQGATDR
T2 sequence (Q9Y5N1 whole entry): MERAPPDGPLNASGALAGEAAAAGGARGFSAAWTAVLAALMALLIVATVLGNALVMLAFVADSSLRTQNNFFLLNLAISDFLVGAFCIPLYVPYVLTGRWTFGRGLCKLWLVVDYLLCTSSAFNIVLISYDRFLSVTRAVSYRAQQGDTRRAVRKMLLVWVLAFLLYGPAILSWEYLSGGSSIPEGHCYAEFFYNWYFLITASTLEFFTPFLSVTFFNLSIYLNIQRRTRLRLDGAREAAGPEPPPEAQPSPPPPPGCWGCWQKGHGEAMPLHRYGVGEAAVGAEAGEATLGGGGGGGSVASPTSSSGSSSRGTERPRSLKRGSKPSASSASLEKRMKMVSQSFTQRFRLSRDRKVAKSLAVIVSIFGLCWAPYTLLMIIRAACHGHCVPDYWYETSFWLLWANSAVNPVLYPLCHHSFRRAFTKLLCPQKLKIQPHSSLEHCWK
T1 sequence (Q9Y5N1 whole entry): as above

| Structure (SMILES) | Ki [1] | Ki ([2]; competitive binding, selectivity study Table 2, read-out: Ki (nM) H3R) | inhibition of binding to H4R compared to H3R [3] | Ki [3] | Ki [4] | Ki [5] | oral bioavailability (AUC 0-24 hr; po/iv ratio) [6] | half-life ([6]; blood) | Ki [2] | half-life ([6]; in vivo) |
| --- | --- | --- | --- | --- | --- | --- | --- | --- | --- | --- |
| CCN(CC)CCCOc1ccc(C(C)N(C)CCN(C)C)cc1 (stereo not drawn) [Example 1] | 1.4 nM |  |  |  |  |  |  |  |  |  |
| O=C(c1ccc(OCCN2CCCCC2)cc1)N1CCC[C@H]1CN1CCCC1 [Example 131] |  | 1.05 nM | did not inhibit binding H4R | ≥ 20000 nM | ≥ 20000 nM | ≥ 20000 nM | 58% | 624 ± 252 min |  |  |
| CCN1CCc2cc(OCCCN3CCCCC3)ccc2C1.Cl.Cl [Example 250, 2-Ethyl-6-(3-piperidin-1-yl-propoxy)-1,2,3,4-tetrahydro-isoquinoline dihydrochloride] |  |  | did not inhibit binding H4R | ≥ 20000 nM | 1020 nM | 1110 nM |  |  | 0.37 nM |  |
| CCN1CCc2ccc(OCCCN3CCCCC3)cc2C1.Cl.Cl [Example 271, 2-Ethyl-7-(3-Piperidin-1-yl-propoxy)-1,2,3,4-tetrahydro-isoquinoline dihydrochloride] |  |  |  |  |  |  | 69% |  |  | 4310 ± 198 min |
